Read-outs that look alike come from different tables or passages of the source. Starred links: 1 amine or outer side, 2 acyl side, 3 side chain; linkers in the order of their positions; H or OH if unused. Positions of bridges follow the written chain, without caps; N, C: chain ends. Non-standard residues stand in square brackets, D forms with d. Residues, ends and D or L forms follow the SMILES beside them. *: point of attachment. hTyr(3S-OH,4S-OH,3'-OSO3H) = N[C@H](C(=O)O)[C@H](O)[C@@H](O)c1ccc(O)c(OS(=O)(=O)O)c1; Orn(4R-OH,5R-OH) = O=C([C@H](C[C@@H](O)[C@@H](O)N[*:3])N[*:1])[*:2]; Pro(3S-OH,4S-Me) = C[C@H]1CN[C@H](C(=O)O)[C@H]1O; X1 = CCCCCOc1ccc(-c2cc(-c3ccc(C(=O)*)cc3)no2)cc1; Gln(3R-OH) = NC(=O)C[C@@H](O)[C@H](N)C(=O)O; Hyp = O=C(O)[C@@H]1C[C@@H](O)CN1

This data set is described as follows: Population pharmacokinetic model of total plasma micafungin in patients. The data set is classed as in vivo, human. The conditions noted are these: 31 patients; for clearance: human. The protocol:
A pharmacokinetic study was carried out in patients under micafungin empirical or directed treatment for invasive candidiasis. The population consisted of 11 morbidly obese critically ill adult patients (from the Hospital Universitario La Paz, Madrid, Spain), 10 nonobese critically ill patients, and 10 obese noncritically ill patients (from the Hospital del Mar, Barcelona, Spain). Patients admitted to ICUs were those considered to be critically ill. The study protocol was approved by the Ethics Committee of the Hospital La Paz (Madrid, Spain) and the Hospital del Mar (Barcelona, Spain). Written informed consent was obtained from patients (or relatives if the patient was unable to provide due to their critical situation) before blood sampling.
Demographic and clinical data prior to initiation of antifungal treatment were collected. Severity (Simplified Acute Physiology Score (SAPS) II), Sequential Organ Failure Assessment (SOFA) score, and risk for invasive candidiasis (Candida score) (except for patients with microbiologically documented infections) were calculated. Patients received dosage regimens of once-daily 100 mg or 150 mg micafungin (Astellas Pharma S.A., Spain) diluted in 100 ml isotonic saline solution that was intravenously infused over 60 min at the discretion of the treating physician (following the prescribing information and hospital treatment guidelines). On day 3, blood samples were collected at baseline (predose) and after 1, 3, 5, 8, 18, and 24 h. Additional blood samples at day 0 and day 7 were collected when feasible.
Total micafungin concentrations in plasma were measured by a validated ultra-high-performance liquid chromatography (UHPLC)-tandem mass spectrometry (MS/MS) method, from 0.2 to 30 μg/ml, on a Shimadzu Nexera 2 UHPLC system coupled to a Shimadzu 8030+ triple quadruple mass spectrometer (Shimadzu, Kyoto, Japan). Clinical samples were assayed alongside plasma calibrators and quality controls and met batch acceptance criteria.
To describe total micafungin concentrations, one- and two-compartment models were developed with the nonparametric adaptive grid algorithm within the freely available Pmetrics software package for R (Los Angeles, CA, USA). Elimination from the central compartment, and intercompartmental distribution into the peripheral compartment (two-compartment model), were modeled as first-order processes. The discrimination between different models resulted from the comparison of the −2 log-likelihood (−2LL). A p value of < 0.05 was considered statistically significant.
Age, gender, body weight, body mass index (BMI), Acute Physiology and Chronic Health Evaluation (APACHE) II, serum creatinine concentration, measured creatinine clearance, Cockroft-Gault estimated creatinine clearance, and serum albumin concentration were evaluated as covariates. Covariate selection was performed using a stepwise linear regression from R on all covariates and Bayesian posterior parameters. Potential covariates were separately entered into the model and statistically tested by use of the –2LL values.
Goodness-of-fit was assessed by linear regression, with an observed-predicted plot, coefficients of determination, and LL values. Predictive performance evaluation was based on mean error of prediction (bias) and mean bias-adjusted squared error of prediction (imprecision) of the population and individual prediction models. The internal validity of the population pharmacokinetic model was assessed by the bootstrap resampling method (n = 1000) and normalized prediction distribution errors (NPDE). Using a visual predictive check method, parameters obtained from the bootstrap method were plotted with the observed concentrations. NPDE plots were checked for normal distribution characteristics and trends in data errors. […]

[1] abbreviates: final two-compartment covariate population PK model, 100 or 150 mg once daily iv.
Where [2] appears, read: final two-compartment covariate population PK model, 100 or 150 mg once daily iv, SD.

Broadly, the clearance is the volume of plasma or blood freed of the substance per unit of time. Consider `CCCCCOc1ccc(-c2cc(-c3ccc(C(=O)N[C@H]4C[C@@H](O)[C@@H](O)NC(=O)[C@@H]5[C@@H](O)[C@@H](C)CN5C(=O)[C@H]([C@H](O)CC(N)=O)NC(=O)[C@H]([C@H](O)[C@@H](O)c5ccc(O)c(OS(=O)(=O)O)c5)NC(=O)[C@@H]5C[C@@H](O)CN5C(=O)[C@H]([C@@H](C)O)NC4=O)cc3)no2)cc1` [micafungin] (X1-[Orn(4R-OH,5R-OH)]T[Hyp][hTyr(3S-OH,4S-OH,3'-OSO3H)][Gln(3R-OH)][Pro(3S-OH,4S-Me)]; lactam 1-C), for which, under setting [1], the “Central volume, median” value came to 16.34 L; the “kcp, median” value was 0.26 h⁻¹; the “kpc, median” value was found to be 0.14 h⁻¹. Under setting [2], the “Central volume, mean ± SD” value turned out to be 16.34 ± 5.87 L; the “kcp (rate constant central to peripheral compartment), mean ± SD” value worked out at 0.38 ± 0.37 h⁻¹; the “kpc (rate constant peripheral to central compartment), mean ± SD” value worked out at 0.32 ± 0.31 h⁻¹. Further, under “plasma, iv, final two-compartment covariate population PK model, 100 or 150 mg once daily iv, read-out: Clearance, median (converted)”, the clearance is 12.2 mL/min. Besides, the clearance (final two-compartment covariate population PK model (weight, age on CL), 100 or 150 mg once daily iv over 60 min, 242 total plasma concentrations, UHPLC-MS/MS, SD, read-out: Clearance, mean ± SD (converted)) is 13.3 mL/min.

The record behind these values is paper PMC5899833, “Population pharmacokinetics/pharmacodynamics of micafungin against Candida species in obese, critically ill, and morbidly obese critically ill patients” (Critical Care, 2018).
